From PubChem BioAssay (NCI)
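96-well plates; 48 h exposure; 5 concentrations. Endpoints by linear interpolation between flanking doses. Not reached: highest tested concentration assigned. GI50: concentration for 50% inhibition of growth. TGI is the concentration that stops growth completely.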

Key:
Experiment in all cases: growth of human tumour cells (NCI), 48 h
A549 NSCLC = tested on: A549 NSCLC
EKVX NSCLC = tested on: EKVX NSCLC
HL-60(TB) leukemia = tested on: HL-60(TB) leukemia
HOP-92 NSCLC = tested on: HOP-92 NSCLC
NCI-H226 lung = tested on: NCI-H226 lung
UO-31 renal = tested on: UO-31 renal
UACC-62 melanoma = tested on: UACC-62 melanoma
UACC-257 melanoma = tested on: UACC-257 melanoma
MALME-3M melanoma = tested on: MALME-3M melanoma
HCT-15 colon = tested on: HCT-15 colon
SR leukemia = tested on: SR leukemia
BT-549 breast = tested on: BT-549 breast
786-0 renal = tested on: 786-0 renal
DU-145 prostate = tested on: DU-145 prostate
MDA-MB-231 breast = tested on: MDA-MB-231 breast
CCRF-CEM leukemia = tested on: CCRF-CEM leukemia
SK-MEL-2 melanoma = tested on: SK-MEL-2 melanoma
SF-539 CNS = tested on: SF-539 CNS
RPMI-8226 leukemia = tested on: RPMI-8226 leukemia
A498 renal = tested on: A498 renal
OVCAR-4 ovarian = tested on: OVCAR-4 ovarian
KM12 colon = tested on: KM12 colon
K-562 leukemia = tested on: K-562 leukemia
M14 melanoma = tested on: M14 melanoma
OVCAR-3 ovarian = tested on: OVCAR-3 ovarian
OVCAR-5 ovarian = tested on: OVCAR-5 ovarian
RXF 393 renal = tested on: RXF 393 renal
NCI-H522 lung = tested on: NCI-H522 lung
SF-295 CNS = tested on: SF-295 CNS
PC-3 prostate = tested on: PC-3 prostate
COLO 205 colon = tested on: COLO 205 colon
LOX IMVI melanoma = tested on: LOX IMVI melanoma
SNB-19 CNS = tested on: SNB-19 CNS
NCI-H23 lung = tested on: NCI-H23 lung
SW-620 colon = tested on: SW-620 colon
T-47D breast = tested on: T-47D breast
SK-MEL-5 melanoma = tested on: SK-MEL-5 melanoma
HOP-62 NSCLC = tested on: HOP-62 NSCLC
SNB-75 CNS = tested on: SNB-75 CNS
MCF7 breast = tested on: MCF7 breast
HT29 colon = tested on: HT29 colon
HS 578T breast = tested on: HS 578T breast
HCT-116 colon = tested on: HCT-116 colon
HCC-2998 colon = tested on: HCC-2998 colon
MOLT-4 leukemia = tested on: MOLT-4 leukemia
TK-10 renal = tested on: TK-10 renal
IGROV1 ovarian = tested on: IGROV1 ovarian
OVCAR-8 ovarian = tested on: OVCAR-8 ovarian
ACHN renal = tested on: ACHN renal
CAKI-1 renal = tested on: CAKI-1 renal
U251 CNS = tested on: U251 CNS
SF-268 CNS = tested on: SF-268 CNS
NCI-H460 lung = tested on: NCI-H460 lung
SK-OV-3 ovarian = tested on: SK-OV-3 ovarian
NCI/ADR-RES ovarian = tested on: NCI/ADR-RES ovarian
SN12C renal = tested on: SN12C renal
MDA-MB-435 = tested on: MDA-MB-435
SK-MEL-28 melanoma = tested on: SK-MEL-28 melanoma

Question: What does the source list for Cc1ccc(CN(C)c2ccc(CO)c(Cl)c2)cc1?
Answer: GI50 (A549 NSCLC): 3.69 µM; TGI (A549 NSCLC): 27.7 µM; GI50 (EKVX NSCLC): 18.6 µM; TGI (EKVX NSCLC): 79.7 µM; GI50 (HL-60(TB) leukemia): 15.1 µM; TGI (HL-60(TB) leukemia): 56 µM; GI50 (HOP-92 NSCLC): 1.98 µM; TGI (HOP-92 NSCLC): 36.7 µM; GI50 (NCI-H226 lung): 0.119 µM; TGI (NCI-H226 lung): 0.257 µM; GI50 (UO-31 renal): 6.54 µM; TGI (UO-31 renal): 75.9 µM; GI50 (UACC-62 melanoma): 0.282 µM; TGI (UACC-62 melanoma): 2.71 µM; GI50 (UACC-257 melanoma): 0.344 µM; TGI (UACC-257 melanoma): 1.31 µM; GI50 (MALME-3M melanoma): 19.7 µM; TGI (MALME-3M melanoma): 59 µM; GI50 (HCT-15 colon): 13.4 µM; TGI (HCT-15 colon): > 100 µM; GI50 (SR leukemia): 23.7 µM; TGI (SR leukemia): > 86.8 µM; GI50 (BT-549 breast): 13.2 µM; TGI (BT-549 breast): 37 µM; GI50 (786-0 renal): 11.8 µM; TGI (786-0 renal): 31.9 µM; GI50 (DU-145 prostate): 22.6 µM; TGI (DU-145 prostate): > 100 µM; GI50 (MDA-MB-231 breast): 21.9 µM; TGI (MDA-MB-231 breast): > 100 µM; GI50 (CCRF-CEM leukemia): 33.7 µM; TGI (CCRF-CEM leukemia): > 100 µM; GI50 (SK-MEL-2 melanoma): 8.26 µM; TGI (SK-MEL-2 melanoma): 31 µM; GI50 (SF-539 CNS): 30 µM; TGI (SF-539 CNS): > 94.1 µM; GI50 (RPMI-8226 leukemia): 10.2 µM; TGI (RPMI-8226 leukemia): > 65.2 µM; GI50 (A498 renal): 0.056 µM; TGI (A498 renal): 0.196 µM; GI50 (OVCAR-4 ovarian): 1.52 µM; TGI (OVCAR-4 ovarian): 13.7 µM; GI50 (KM12 colon): 21.3 µM; TGI (KM12 colon): 72 µM; GI50 (K-562 leukemia): 6.05 µM; TGI (K-562 leukemia): > 100 µM; GI50 (M14 melanoma): 20.9 µM; TGI (M14 melanoma): > 65.1 µM; GI50 (OVCAR-3 ovarian): 3.06 µM; TGI (OVCAR-3 ovarian): 12.5 µM; GI50 (OVCAR-5 ovarian): 0.446 µM; TGI (OVCAR-5 ovarian): 2.48 µM; GI50 (RXF 393 renal): 6.9 µM; TGI (RXF 393 renal): 26.5 µM; GI50 (NCI-H522 lung): 17.2 µM; TGI (NCI-H522 lung): 65.6 µM; GI50 (SF-295 CNS): 3.37 µM; TGI (SF-295 CNS): > 76 µM; GI50 (PC-3 prostate): 24.2 µM; TGI (PC-3 prostate): 97.5 µM; GI50 (COLO 205 colon): 3.24 µM; TGI (COLO 205 colon): 10.5 µM; GI50 (LOX IMVI melanoma): 17.9 µM; TGI (LOX IMVI melanoma): > 52.7 µM; GI50 (SNB-19 CNS): 34.8 µM; TGI (SNB-19 CNS): > 100 µM; GI50 (NCI-H23 lung): 12.6 µM; TGI (NCI-H23 lung): > 80 µM; GI50 (SW-620 colon): 5.23 µM; TGI (SW-620 colon): > 100 µM; GI50 (T-47D breast): 0.367 µM; TGI (T-47D breast): 2.4 µM; GI50 (SK-MEL-5 melanoma): 5.44 µM; TGI (SK-MEL-5 melanoma): 18 µM; GI50 (HOP-62 NSCLC): 3.44 µM; TGI (HOP-62 NSCLC): 29.9 µM; GI50 (SNB-75 CNS): 17.2 µM; TGI (SNB-75 CNS): 78.2 µM; GI50 (MCF7 breast): 0.676 µM; TGI (MCF7 breast): 12 µM; GI50 (HT29 colon): 6.07 µM; TGI (HT29 colon): 30 µM; GI50 (HS 578T breast): 26.2 µM; TGI (HS 578T breast): > 100 µM; GI50 (HCT-116 colon): 0.395 µM; TGI (HCT-116 colon): 11.6 µM; GI50 (HCC-2998 colon): 13.9 µM; TGI (HCC-2998 colon): > 60.6 µM; GI50 (MOLT-4 leukemia): 25.4 µM; TGI (MOLT-4 leukemia): > 79.7 µM; GI50 (TK-10 renal): 0.194 µM; TGI (TK-10 renal): 0.938 µM; GI50 (IGROV1 ovarian): 0.363 µM; TGI (IGROV1 ovarian): 2.52 µM; GI50 (OVCAR-8 ovarian): 14.3 µM; TGI (OVCAR-8 ovarian): > 80.1 µM; GI50 (ACHN renal): 23.6 µM; TGI (ACHN renal): > 100 µM; GI50 (CAKI-1 renal): 2.4 µM; TGI (CAKI-1 renal): 45.8 µM; GI50 (U251 CNS): 3.92 µM; TGI (U251 CNS): 39.9 µM; GI50 (SF-268 CNS): 30.8 µM; TGI (SF-268 CNS): > 100 µM; GI50 (NCI-H460 lung): 1.17 µM; TGI (NCI-H460 lung): 11.5 µM; GI50 (SK-OV-3 ovarian): 5.8 µM; TGI (SK-OV-3 ovarian): 30.3 µM; GI50 (NCI/ADR-RES ovarian): 16.1 µM; TGI (NCI/ADR-RES ovarian): 63.2 µM; GI50 (SN12C renal): 14 µM; TGI (SN12C renal): 49.5 µM; GI50 (MDA-MB-435): 29.8 µM; TGI (MDA-MB-435): > 100 µM; GI50 (SK-MEL-28 melanoma): 15.6 µM; TGI (SK-MEL-28 melanoma): 53.6 µM
